This is an account of results in patent US20260014147A1, “STAT6 DEGRADERS” (Gilead Sciences, Inc., priority 2024, published 2026).

Experiment [1] has as its target T1, human STAT6 (truncated, aa122-658, with N-terminal His-tag) (Homo sapiens, UniProt P42226).
T1 construct: Human STAT6 (truncated, aa122-658, with N-terminal His-tag, expressed in insect cells); His-tag (N); made in house; host or cells: insect cells
T1 sequence (P42226 122-658): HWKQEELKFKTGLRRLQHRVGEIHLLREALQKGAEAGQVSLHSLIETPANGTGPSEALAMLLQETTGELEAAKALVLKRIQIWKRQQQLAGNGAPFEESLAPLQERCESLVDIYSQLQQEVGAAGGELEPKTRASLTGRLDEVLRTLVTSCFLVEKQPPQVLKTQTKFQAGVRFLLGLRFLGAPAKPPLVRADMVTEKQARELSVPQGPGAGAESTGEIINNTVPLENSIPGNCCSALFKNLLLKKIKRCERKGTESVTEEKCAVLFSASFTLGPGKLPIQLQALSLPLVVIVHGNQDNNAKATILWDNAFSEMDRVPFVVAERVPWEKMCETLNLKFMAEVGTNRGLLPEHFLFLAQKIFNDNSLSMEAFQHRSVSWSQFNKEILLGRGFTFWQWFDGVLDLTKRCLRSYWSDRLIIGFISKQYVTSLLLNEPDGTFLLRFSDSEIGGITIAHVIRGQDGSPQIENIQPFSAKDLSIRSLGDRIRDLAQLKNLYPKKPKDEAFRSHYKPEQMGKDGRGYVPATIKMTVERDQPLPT
In words: Surface Plasmon Resonance (SPR) assay: binding of compounds to immobilized human STAT6. Conditions: immobilized human STAT6 (aa122-658), 25° C.; geometric mean. As to the method: SPR was used to confirm and quantify binding of compounds to human STAT6. Biacore instruments from the 8K-series (Cytiva) were used, and measurements were performed at 25° C. Human STAT6 (truncated, aa122-658, with N-terminal His-tag, expressed in insect cells) was immobilized in the active flow cells on a CM5 chip using amine-coupling (default settings) at 10 μg/ml in 10 mM acetate buffer pH 5.5, at a contact time of 120-420 sec. and a flow rate of […]. Reference flow cells were deactivated using blank immobilization. PBS-P+ (Cytiva) supplemented with 2% DMSO was used as running buffer, and solvent correction was applied. Compounds were tested by multi-cycle kinetics injections using a contact time of 60 sec., dissociation time of up to 300 sec., and a flow rate of […].
Solvent-corrected, reference-subtracted and blank-corrected data was processed and binding isotherms were fitted according to a single report point from each sensorgram (Standard: Late binding (5 sec. before injection end); alternative: Earlier report point according to binding profile). Data fitting was done both with unfixed Rmax and with Rmax fixed to the theoretical value* assuming 1:1 binding to allow processing of data from both weak and strong binders as well as to evaluate binding stoichiometry.
Positive controls were run at the beginning, during, and at the end of the screen to evaluate surface activity. Generally surface activity was only affected to a minor degree, and no corrections were applied.
*Equation for calculation of the theoretical Rmax (Theoretical Rmax=(MW Analyte/MW Ligand) x immobilization level).
The sensorgrams for Examples 2a1, 2t1, 2m1, and 2a2 are shown below (where RU is plotted vs. time in seconds; dotted lines/points were excluded from the analysis due to effects from non-specific binding).

In experiment [2] the target is T2, STAT6 (endogenous, HiBiT-tagged) in HeLa LgBiT clone 4.14 cells (Homo sapiens, UniProt P42226).
T2 construct: These cells express endogenous STAT6; host or cells: HeLa LgBiT clone 4.14
T2 sequence (P42226 1-847): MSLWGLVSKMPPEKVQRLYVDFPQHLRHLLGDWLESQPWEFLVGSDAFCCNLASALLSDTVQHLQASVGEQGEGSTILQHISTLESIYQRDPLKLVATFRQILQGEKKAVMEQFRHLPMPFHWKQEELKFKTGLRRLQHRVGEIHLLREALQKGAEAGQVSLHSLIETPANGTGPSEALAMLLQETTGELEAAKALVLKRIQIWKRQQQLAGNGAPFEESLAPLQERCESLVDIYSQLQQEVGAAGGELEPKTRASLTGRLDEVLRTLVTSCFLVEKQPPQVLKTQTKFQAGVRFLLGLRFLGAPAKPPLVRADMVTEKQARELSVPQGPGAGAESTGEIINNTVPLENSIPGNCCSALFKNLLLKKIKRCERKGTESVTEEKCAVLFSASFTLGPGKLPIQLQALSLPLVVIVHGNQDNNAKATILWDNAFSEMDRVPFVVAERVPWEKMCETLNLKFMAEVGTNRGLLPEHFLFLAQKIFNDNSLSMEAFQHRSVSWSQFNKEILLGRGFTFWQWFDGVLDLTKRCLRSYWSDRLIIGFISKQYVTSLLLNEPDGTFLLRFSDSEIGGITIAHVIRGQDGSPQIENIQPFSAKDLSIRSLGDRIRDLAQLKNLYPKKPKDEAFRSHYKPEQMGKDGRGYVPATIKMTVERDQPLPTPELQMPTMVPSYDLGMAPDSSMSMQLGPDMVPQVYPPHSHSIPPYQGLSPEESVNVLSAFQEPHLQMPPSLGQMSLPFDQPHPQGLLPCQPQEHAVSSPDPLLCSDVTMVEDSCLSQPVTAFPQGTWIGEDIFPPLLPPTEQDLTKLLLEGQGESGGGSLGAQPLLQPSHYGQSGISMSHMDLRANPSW
In words: STAT6 Degrader Assay (HiBiT based, HeLa LgBiT clone 4.14 cells, luminescence, DC50). It is filed as cell-based. Conditions: geometric mean; for Emax: Emax provided for test compounds with <80% Emax (and 2c15), read-out: STAT6 degradation Emax. Summed up: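 HeLa LgBiT clone 4.14 cells carry CRISPR-inserted HiBiT on endogenous STAT6; 5000 cells/well were exposed to compound for 4-24 h at 37 °C, 5% CO2. Nano-Glo substrate added for 0.5 h; luminescence reflects remaining STAT6, with terfenadine ([…]) wells defining 100% degradation.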
Background: HiBiT is a short tag that completes a luciferase, so light tracks the accessible tagged protein.

The test system of experiment [3] is Eotaxin-3 (CCL26) release in human whole blood stimulated with IL-4. In words: Human Whole Blood Eotaxin-3 Assay (IL-4 stimulated, inhibition of eotaxin-3 release). It is filed as cell-based. Conditions: Homo sapiens, EC50 provided for test compounds with >80% Emax, geometric mean across assay runs and batches. In outline:
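Lithium-heparin human whole blood preincubated 2 h at 37 °C with compounds (4-fold serial dilution, triplicate, 0.5% DMSO final), then stimulated with 400 pM IL-4 for 48 h. Eotaxin-3 (CCL26) in supernatant quantified by MSD immunoassay.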

Take `Cn1c(CN2CCC(c3ccc(C(=O)N4CCC(CN5CCN(c6ccc(NC7CCC(=O)NC7=O)cc6F)CC5)CC4)cc3)CC2)cc2c(-c3ccc4[nH]ncc4c3)ccnc21` (stereo not drawn) [Example 2c1, 3-((4-(4-((1-(4-(1-((4-(1H-indazol-5-yl)-1-methyl-1H-pyrrolo[2,3-b]pyridin-2-yl)methyl)-piperidin-4-yl)benzoyl)piperidin-4-yl)methyl)piperazin-1-yl)-3-fluorophenyl)amino)piperidine-2,6-dione]: in experiment [1], the Kd (as a rule, a measure of binding affinity in units of concentration) was 193 nM. Moreover, the Emax (in general, the maximal effect, on the per cent scale that the assay sets) in experiment [2] is 70 to 80%. The response in experiment [3] was half-maximal at 556 nM (EC50).

With `Cn1c(CN2CCC(c3ccc(C(=O)N4CCC(CN5CCN(c6ccc(NC7CCC(=O)NC7=O)cc6F)CC5)CC4)cc3)CC2)cc2c(-c3cnc(N)c(F)c3)ccnc21` (stereo not drawn) [Example 2c3, 3-((4-(4-((1-(4-(1-((4-(6-amino-5-fluoropyridin-3-yl)-1-methyl-1H-pyrrolo[2,3-b]pyridin-2-yl)-methyl)piperidin-4-yl)benzoyl)piperidin-4-yl)methyl)piperazin-1-yl)-3-fluorophenyl)amino)piperidine-2,6-dione], the Kd in experiment [1] is below 20 nM. Further, the Emax in experiment [2] is below 20%.

`Cn1c(CN2CCC(c3ccc(C(=O)N4CCC(CN5CCN(c6ccc(NC7CCC(=O)NC7=O)cc6F)CC5)CC4)cc3)CC2)cc2c(-c3ccc(N)nc3C#N)ccnc21` (stereo not drawn) [Example 2c8, 6-amino-3-(2-((4-(4-(4-((4-(4-((2,6-dioxopiperidin-3-yl)amino)-2-fluorophenyl)piperazin-1-yl)-methyl)piperidine-1-carbonyl)phenyl)piperidin-1-yl)methyl)-1-methyl-1H-pyrrolo[2,3-b]pyridin-4-yl)-picolinonitrile] showed a Kd in experiment [1] of 40 to 50 nM. For the same compound, in experiment [2], the maximal response (Emax) was below 20%.

For the compound `Cn1c(CN2CCC(c3ccc(C(=O)N4CCC(CN5CCN(C(=O)c6ccc(NC7CCC(=O)NC7=O)cc6F)CC5)CC4)cc3)CC2)cc2c(-c3ccc4[nH]ncc4c3)ccnc21` (stereo not drawn) [Example 2e1, 3-((4-(4-((1-(4-(1-((4-(1H-indazol-5-yl)-1-methyl-1H-pyrrolo[2,3-b]pyridin-2-yl)methyl)-piperidin-4-yl)benzoyl)piperidin-4-yl)methyl)piperazine-1-carbonyl)-3-fluorophenyl)amino)piperidine-2,6-dione], the Kd in experiment [1] was below 20 nM. For the same compound, the Emax in experiment [2] was below 20%.

On to `Cn1c(CN2CCC(c3ccc(C(=O)N4CCC(CN5CCC(c6ccc(NC7CCC(=O)NC7=O)cc6F)CC5)CC4)cc3)CC2)cc2c(-c3ccc4[nH]ncc4c3)ccnc21` (stereo not drawn) [Example 2m1, 3-((4-(1-((1-(4-(1-((4-(1H-indazol-5-yl)-1-methyl-1H-pyrrolo[2,3-b]pyridin-2-yl)methyl)-piperidin-4-yl)benzoyl)piperidin-4-yl)methyl)piperidin-4-yl)-3-fluorophenyl)amino)piperidine-2,6-dione], for which binding in experiment [1] was put at a Kd of 466 nM. The maximal effect (Emax) in experiment [2] was in the range of 60 to 70%.

Take `Cn1c(CN2CCC(c3ccc(C(=O)N4CCN(C(=O)CN5CCC(c6ccc(OC7CCC(=O)NC7=O)cc6F)CC5)CC4)cc3)CC2)cc2c(-c3ccc4[nH]ncc4c3)ccnc21` (stereo not drawn) [Example 2t1, 3-(4-(1-(2-(4-(4-(1-((4-(1H-indazol-5-yl)-1-methyl-1H-pyrrolo[2,3-b]pyridin-2-yl)methyl)-piperidin-4-yl)benzoyl)piperazin-1-yl)-2-oxoethyl)piperidin-4-yl)-3-fluorophenoxy) piperidine-2,6-dione]: the Kd in experiment [1] stood at 105 nM. For the same compound, in experiment [2] (DC50 provided for test compounds with >80% Emax, read-out: STAT6 degradation DC50), the DC50 (commonly the midpoint of the concentration-degradation curve) worked out at 8.1 nM.

For the compound `Cn1c(CN2CCC(c3ccc(C(=O)N4CCC(CN5CCC(n6ncc7cc(NC8CCC(=O)NC8=O)ccc76)CC5)CC4)cc3)CC2)cc2c(-c3ccc4[nH]ncc4c3)ccnc21` (stereo not drawn) [Example 2t4, 3-((1-(1-((1-(4-(1-((4-(1H-indazol-5-yl)-1-methyl-1H-pyrrolo[2,3-b]pyridin-2-yl)methyl)-piperidin-4-yl)benzoyl)piperidin-4-yl)methyl)piperidin-4-yl)-1H-indazol-5-yl)amino)piperidine-2,6-dione], in experiment [1], the Kd is below 20 nM. In addition, in experiment [2], the Emax was below 20%.
